The source of these data is PubChem BioAssay AID328 (DTP/NCI, 2004).

In the test the test system is BDF1 mice, P388 leukemia ip, median survival T/C. Nature of the test: NCI In Vivo Anticancer Drug Screen. Data for tumor model P388 Leukemia (intraperitoneal) in B6D2F1 (BDF1) mice. As to conditions: endpoint: median survival time, higher = longer survival. The method, boiled down: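 Antitumour effect was judged in vivo: survival in drug-treated mice, normalised to that of vehicle-dosed controls, gives the reported T/C.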

Where [1] appears, read: dose: 150.0 mg/kg/injection, schedule: Q04DX003 (ip), vehicle: Klucel (hydroxypropylcellulose) (HPC).
Setting [2] is: dose: 50.0 mg/kg/injection, schedule: Q01DX009 (ip), vehicle: saline with Tween-80.
The mark [3] stands for this setting: dose: 100.0 mg/kg/injection, schedule: Q01DX009 (ip), vehicle: saline with Tween-80.
[4] abbreviates: dose: 200.0 mg/kg/injection, schedule: Q01DX009 (ip), vehicle: saline with Tween-80.
Setting [5] is: dose: 100.0 mg/kg/injection, schedule: Q04DX003 (ip), vehicle: saline with Tween-80.
[6] abbreviates: dose: 200.0 mg/kg/injection, schedule: Q04DX003 (ip), vehicle: saline with Tween-80.
[7] abbreviates: dose: 400.0 mg/kg/injection, schedule: Q04DX003 (ip), vehicle: saline with Tween-80.
Setting [8] is: dose: 400.0 mg/kg/injection, schedule: Q01DX009 (ip), vehicle: saline with Tween-80.

Values joined by “and” are separate entries in the source; they are usually repeats but may differ in a detail not shown here. Identical values can stand only once. Inconclusive results and toxic doses are left out.

On to `CNC(=O)c1n[nH]c(C)c1[N+](=O)[O-]`, for which the T/C (dose: 25.0 mg/kg/injection, schedule: Q04DX003 (ip), vehicle: water) was 101 % of control; the T/C (dose: 50.0 mg/kg/injection, schedule: Q04DX003 (ip), vehicle: water) was 106 % of control; the T/C (dose: 100.0 mg/kg/injection, schedule: Q04DX003 (ip), vehicle: water) is 114 % of control; the T/C (dose: 200.0 mg/kg/injection, schedule: Q04DX003 (ip), vehicle: water) is 97 % of control; the T/C (dose: 400.0 mg/kg/injection, schedule: Q04DX003 (ip), vehicle: water) was 87 % of control.
As to `CNC(=S)N/N=C(/C)CCc1c(C)nn(C(=S)NC)c1C`, the T/C reads like this: under setting [1], 112 % of control; (dose: 225.0 mg/kg/injection, schedule: Q04DX003 (ip), vehicle: Klucel (hydroxypropylcellulose) (HPC)) 112 % of control; (dose: 335.0 mg/kg/injection, schedule: Q04DX003 (ip), vehicle: Klucel (hydroxypropylcellulose) (HPC)) 108 % of control.
Take `CCC(CCC(C)C1CCC2C3CC=C4CC(O)CCC4(C)C3CCC12C)C(C)C` (centres undefined) (tested in a mixture with another compound): the T/C (dose: 12.5 mg/kg/injection, schedule: Q#A X020 (ip), vehicle: water) was 90 % of control.
For `CCOC(=O)C(F)C(Br)C(=O)OCC` (centres undefined), the T/C reads like this: under setting [2], 96 % of control and 101 % of control; under setting [3], 116 % of control; under setting [4], 154 % of control.
For the compound `OC(OCCCCCCOC(O)C(Cl)(Cl)Cl)C(Cl)(Cl)Cl` (centres undefined), the T/C reads like this: under setting [5], 95 % of control; under setting [6], 95 % of control; under setting [7], 90 % of control.
For the compound `Cc1cc(C)nc(NN)n1`, the T/C was 98 % of control (dose: 6.25 mg/kg/injection, schedule: Q01DX009 (ip), vehicle: saline with Tween-80); 96 % of control (dose: 12.5 mg/kg/injection, schedule: Q01DX009 (ip), vehicle: saline with Tween-80); 101 % of control (dose: 25.0 mg/kg/injection, schedule: Q01DX009 (ip), vehicle: saline with Tween-80); 102 % of control under setting [2].
For `CC(=O)[O][Pb]([CH2]CC(C)C)([CH2]CC(C)C)[CH2]CC(C)C`, the T/C runs as follows: (dose: 0.19 mg/kg/injection, schedule: Q01DX009 (ip), vehicle: saline with Tween-80) 123 % of control; (dose: 0.38 mg/kg/injection, schedule: Q01DX009 (ip), vehicle: Klucel (hydroxypropylcellulose) (HPC)) 94 % of control; (dose: 0.38 mg/kg/injection, schedule: Q01DX009 (ip), vehicle: saline with Tween-80) 111 % of control; (dose: 0.75 mg/kg/injection, schedule: Q01DX009 (ip), vehicle: Klucel (hydroxypropylcellulose) (HPC)) 105 % of control; (dose: 0.75 mg/kg/injection, schedule: Q01DX009 (ip), vehicle: saline with Tween-80) 106 % of control.
As for `CCCSCC(C)C`, the T/C is 100 % of control under setting [5], 109 % of control under setting [6] and 90 % of control under setting [7].
As to `O=C(O)C1CCC(=O)N1C(=O)OCc1ccccc1` (centres undefined), the T/C under setting [3] was 90 % of control, the T/C under setting [4] was 90 % of control and the T/C under setting [8] was 95 % of control.
For `CCCCNC(=O)Nc1ccc(N(C)C)cc1`, the T/C is 90 % of control under setting [5], 90 % of control under setting [6] and 100 % of control under setting [7].
Take `c1ccc(-c2oc3ccc4ccccc4c3c2-c2ccc(OCCN3CCCC3)cc2)cc1`: the T/C by setting is: (dose: 10.0 mg/kg/injection, schedule: Q01DX009 (ip), vehicle: Klucel (hydroxypropylcellulose) (HPC)) 105 % of control; (dose: 20.0 mg/kg/injection, schedule: Q01DX009 (ip), vehicle: Klucel (hydroxypropylcellulose) (HPC)) 95 % of control; (dose: 40.0 mg/kg/injection, schedule: Q01DX009 (ip), vehicle: Klucel (hydroxypropylcellulose) (HPC)) 105 % of control; (dose: 80.0 mg/kg/injection, schedule: Q01DX009 (ip), vehicle: Klucel (hydroxypropylcellulose) (HPC)) 100 % of control.
For the compound `CCN=C1N[N+]2=CCCCC2S1` (centres undefined), the T/C was 111 % of control (dose: 35.0 mg/kg/injection, schedule: Q01DX009 (ip), vehicle: saline) and 95 % of control (dose: 140.0 mg/kg/injection, schedule: Q01DX009 (ip), vehicle: saline).
In the case of `CCCN1CSC(=S)N(Cc2ccccc2)C1`, the T/C under setting [3] was 90 % of control; the T/C under setting [5] is 95 % of control; the T/C under setting [4] is 100 % of control; the T/C under setting [6] is 95 % of control; the T/C under setting [8] is 90 % of control; the T/C under setting [7] is 95 % of control.
With `CC1=CC(C)(C)NC(=S)N1c1ccccc1`, the T/C reads like this: (dose: 75.0 mg/kg/injection, schedule: Q04DX003 (ip), vehicle: Klucel (hydroxypropylcellulose) (HPC)) 100 % of control; (dose: 100.0 mg/kg/injection, schedule: Q01DX001 (ip), vehicle: Klucel (hydroxypropylcellulose) (HPC)) 95 % of control; under setting [1], 100 % of control; (dose: 200.0 mg/kg/injection, schedule: Q01DX001 (ip), vehicle: Klucel (hydroxypropylcellulose) (HPC)) 104 % of control; (dose: 300.0 mg/kg/injection, schedule: Q04DX003 (ip), vehicle: Klucel (hydroxypropylcellulose) (HPC)) 100 % of control; (dose: 400.0 mg/kg/injection, schedule: Q01DX001 (ip), vehicle: Klucel (hydroxypropylcellulose) (HPC)) 109 % of control.
With `O=C(O)c1ccc(C(=O)O)c2c(C(=O)O)ccc(C(=O)O)c12`, the T/C by setting is: (dose: 50.0 mg/kg/injection, schedule: Q04DX003 (ip), vehicle: saline with Tween-80) 95 % of control; under setting [5], 95 % of control; under setting [6], 90 % of control.
In the case of `O=C(Nc1ccccc1Cl)OCC#CCOC(=O)Nc1ccccc1Cl`, the T/C was 90 % of control (dose: 100.0 mg/kg/injection, schedule: Q04DX003 (ip), vehicle: saline sonified); 95 % of control (dose: 200.0 mg/kg/injection, schedule: Q04DX003 (ip), vehicle: saline sonified); 86 % of control (dose: 400.0 mg/kg/injection, schedule: Q04DX003 (ip), vehicle: saline sonified).
Take `CC1N/C(=C/c2ccccc2)C(=O)O1` (centres undefined): the T/C is 118 % of control under setting [2] and 121 % of control under setting [3].
With `Cc1cc(O)c2c(c1)C(c1ccc3cc4c(c(O)c3c1O)C(=O)CC(C)(O)C4)c1cccc(O)c1C2=O` (centres undefined), the T/C (dose: 0.09 mg/kg/injection, schedule: Q01DX009 (ip), vehicle: olive oil, sesame oil, peanut oil) was 102 % of control; the T/C (dose: 0.19 mg/kg/injection, schedule: Q01DX009 (ip), vehicle: olive oil, sesame oil, peanut oil) is 100 % of control; the T/C (dose: 0.39 mg/kg/injection, schedule: Q01DX009 (ip), vehicle: olive oil, sesame oil, peanut oil) is 102 % of control; the T/C (dose: 0.78 mg/kg/injection, schedule: Q01DX009 (ip), vehicle: olive oil, sesame oil, peanut oil) is 106 % of control.
On to `O=C1c2ccccc2C(=O)N1CC/C=C/c1ccc([N+](=O)[O-])cc1Cl`, for which the T/C is, setting by setting: under setting [5], 100 % of control; under setting [6], 100 % of control; under setting [7], 100 % of control.
Turning to `Cc1ccc(C)c(N2CCN(c3ccncc3N)CC2)c1`, the T/C reads like this: (dose: 37.5 mg/kg/injection, schedule: Q04DX003 (ip), vehicle: saline with Tween-80) 113 % of control; (dose: 75.0 mg/kg/injection, schedule: Q04DX003 (ip), vehicle: saline with Tween-80) 122 % of control; (dose: 150.0 mg/kg/injection, schedule: Q04DX003 (ip), vehicle: saline with Tween-80) 118 % of control.
On to `CN(C)C=Nc1ccc2c3c(cccc13)CC2`, for which the T/C (dose: 6.25 mg/kg/injection, schedule: Q01DX009 (ip), vehicle: Klucel (hydroxypropylcellulose) (HPC)) was 103 % of control; the T/C (dose: 12.5 mg/kg/injection, schedule: Q01DX009 (ip), vehicle: Klucel (hydroxypropylcellulose) (HPC)) is 99 % of control; the T/C (dose: 16.6 mg/kg/injection, schedule: Q01DX009 (ip), vehicle: Klucel (hydroxypropylcellulose) (HPC)) is 115 % of control; the T/C (dose: 25.0 mg/kg/injection, schedule: Q01DX009 (ip), vehicle: Klucel (hydroxypropylcellulose) (HPC)) is 114 % of control.
As for `CCOC(=O)C(=O)Cc1cnc2ccccc2n1`, the T/C runs as follows: (dose: 100.0 mg/kg/injection, schedule: Q04DX003 (ip), vehicle: Klucel (hydroxypropylcellulose) (HPC)) 86 % of control; (dose: 200.0 mg/kg/injection, schedule: Q04DX003 (ip), vehicle: Klucel (hydroxypropylcellulose) (HPC)) 86 % of control; (dose: 400.0 mg/kg/injection, schedule: Q04DX003 (ip), vehicle: Klucel (hydroxypropylcellulose) (HPC)) 90 % of control.
Turning to `C[Si](C)(C)O[Si](C)(C)c1ccccc1`, the T/C runs as follows: (dose: 100.0 mg/kg/injection, schedule: Q01DX001 (ip), vehicle: saline) 104 % of control; (dose: 200.0 mg/kg/injection, schedule: Q01DX001 (ip), vehicle: saline) 95 % of control; (dose: 400.0 mg/kg/injection, schedule: Q01DX001 (ip), vehicle: saline) 95 % of control.
